A word on the IC50: it is the point on the concentration scale where inhibition reaches its midpoint. As usually defined, the EC50 is the concentration giving half of the maximal effect.

The text below walks through data of article PMC4259414, “HS-133, a novel fluorescent phosphatidylinositol 3-kinase inhibitor as a potential imaging and anticancer agent for targeted therapy” (Oncotarget, 2014).

The test system of one series is SkBr3 cells. In words: cell cycle analysis by PI staining and flow cytometry. It is filed as cell-based, human. The conditions noted are these: SkBr3, 1, 10, 50 μM, 24 h. The procedure:
To examine the relationship between the growth inhibitory effect of HS-133 and cell cycle progression, we analyzed cell cycle distribution of SkBr3 cells by HS-133 using a flow cytometry. The SkBr3 cells were treated for 24 h with various concentrations of HS-133 (1, 10, 50 μM) and collected and stained with PI and then analyzed by FACS. […] The up-regulation of p27, cyclin dependent kinase (CDK) inhibitor, is related to G0/G1 cell cycle arrest and contributes to the down-regulation of cyclin D1 [31]. Thus, we evaluated the effect of HS-133 on the protein expressions of p27 and cyclin D1. HS-133 increased the expression of p27 while decreasing cyclin D1 expression (Fig. 4C).
The SkBr3 cells were plated in 100 mm-diameter culture dishes. On the following day, the cells were treated with various concentrations of HS-133 or 0.1% DMSO for 24 h. The floating and adherent cells were collected and fixed in cold 70% ethanol at 4°C overnight. […] The events were evaluated for each sample and the cell cycle distribution was analyzed using Cell Quest software (Becton Dickinson). The results were presented as the number of cells versus the amount of DNA, as indicated by the intensity of a fluorescence signal. […]
Background: In flow cytometry, cells or beads pass a laser one at a time.

For the next series, the system named is MCF-7 cells. The series can be described thus: cell viability MTT assay, MCF-7. Type of series: cell-based. As to conditions: Homo sapiens, MCF7, MCF-7, 48 h, read-out: IC50, cell growth inhibition. How it is done:
(§1) To determine whether HS-133 can function as a novel anticancer compound, we tested the ability of this compound to inhibit the growth of breast cancer cell lines (SkBr3, T47D, and MCF-7) using an MTT assay. The cells were exposed to various concentrations (0.5–50 μM) of HS-133 for 48 h. As shown in Fig. 3A-C, HS-133 inhibited the growth of all three breast cancer cell lines in a dose-dependent manner.
(§2) Cell viability was performed by an MTT assay. Briefly, the SkBr3, T47D, and MCF-7 cells were plated at a density of 1-5 × 10^3 cells/well in a 96-well plate for 48 h. The medium was removed, and the cells were treated with either DMSO as control or various concentrations of HS-133. The final concentration of DMSO in the medium was ≤ 0.1% (v/v). After the cells were incubated for 48 h, 20 μl of MTT solutions (2 mg/ml) was added to each well for another 4 h at 37°C. The formazan crystals that formed were dissolved in DMSO (200 μl/well) via constant shaking for 5 min. The plate was then read on a microplate reader at 540 nm. Three replicate wells were used for each analysis. The median inhibitory concentration (IC50, defined as the drug concentration at which cell growth was inhibited by 50%) was assessed from the dose-response curves.

Another series has as its target T1, PI3Kα (Homo sapiens, UniProt P42336).
T1 construct: purchased Reaction Biology Corp. (Malvern, PA), contract assay service
The series can be described thus: radiometric kinase assay ([γ-33P]-ATP), Reaction Biology Corp. Type of series: biochemical.

In a further series the test system is SkBr3 xenograft. The series can be described thus: SkBr3 tumor xenograft study. It is filed as in vivo, BALB/c nude mice. How it is done: We examined the effects of HS-133 using athymic BALB/c nude mice implanted with the SkBr3 cells. HS-133 was injected intratumorally 2 times per week with a dose of 5 mg/kg when tumors reached an average volume of 50–100 mm^3. […] The average tumor volume of HS-133 treated mice was reduced by about 50% compared to that of control mice (Fig. 8D). To assess the general toxicity, we also measured the body weight change in tumor-bearing mice.
To establish SkBr3 tumor xenograft in mice, the SkBr3 cell line was grown in a culture, detached by trypsinization, washed and resuspended in PBS. Six-week old athymic BALB/c nude mice (Central Lab. Animal Inc. Seoul, Korea) were injected with 5 × 10^6 cells in the right flank of each mouse to initiate tumor growth. After reaching a tumor volume of 50–100 mm^3, mice were randomly divided into two groups, each having six mice. Mice in the control group were fed with a 0.2 mL vehicle (DMSO:PEG400:saline = 5:50:45) by oral gavage daily and the second group with 10 mg/kg dose of HS-133 in 0.2 mL daily for 21 days. For intratumoral administration, HS-133 was injected intratumorally with 2 times per week with a dose of 5 mg/kg when tumors reached an average volume of 50–100 mm^3. The body weight and tumor size were recorded twice per week. The tumor size was calculated by 0.5 × long axis × (short axis) ^2. Animal care and experimental procedures were conducted in accordance with the Guide for Animal Experiments by the Korean Academy of Medical Sciences, and the protocols used to this study were approved by the Institutional Animal Care and Use Committee in Inha University Hospital (Approval No. 110802-105).

The subject of the next series is T47D cells. The series can be described thus: cell viability MTT assay, T47D. Type of series: cell-based. The conditions noted are these: Homo sapiens, 48 h, read-out: IC50, cell growth inhibition. The procedure: as §1, §2

T1 sequence (P42336 whole entry): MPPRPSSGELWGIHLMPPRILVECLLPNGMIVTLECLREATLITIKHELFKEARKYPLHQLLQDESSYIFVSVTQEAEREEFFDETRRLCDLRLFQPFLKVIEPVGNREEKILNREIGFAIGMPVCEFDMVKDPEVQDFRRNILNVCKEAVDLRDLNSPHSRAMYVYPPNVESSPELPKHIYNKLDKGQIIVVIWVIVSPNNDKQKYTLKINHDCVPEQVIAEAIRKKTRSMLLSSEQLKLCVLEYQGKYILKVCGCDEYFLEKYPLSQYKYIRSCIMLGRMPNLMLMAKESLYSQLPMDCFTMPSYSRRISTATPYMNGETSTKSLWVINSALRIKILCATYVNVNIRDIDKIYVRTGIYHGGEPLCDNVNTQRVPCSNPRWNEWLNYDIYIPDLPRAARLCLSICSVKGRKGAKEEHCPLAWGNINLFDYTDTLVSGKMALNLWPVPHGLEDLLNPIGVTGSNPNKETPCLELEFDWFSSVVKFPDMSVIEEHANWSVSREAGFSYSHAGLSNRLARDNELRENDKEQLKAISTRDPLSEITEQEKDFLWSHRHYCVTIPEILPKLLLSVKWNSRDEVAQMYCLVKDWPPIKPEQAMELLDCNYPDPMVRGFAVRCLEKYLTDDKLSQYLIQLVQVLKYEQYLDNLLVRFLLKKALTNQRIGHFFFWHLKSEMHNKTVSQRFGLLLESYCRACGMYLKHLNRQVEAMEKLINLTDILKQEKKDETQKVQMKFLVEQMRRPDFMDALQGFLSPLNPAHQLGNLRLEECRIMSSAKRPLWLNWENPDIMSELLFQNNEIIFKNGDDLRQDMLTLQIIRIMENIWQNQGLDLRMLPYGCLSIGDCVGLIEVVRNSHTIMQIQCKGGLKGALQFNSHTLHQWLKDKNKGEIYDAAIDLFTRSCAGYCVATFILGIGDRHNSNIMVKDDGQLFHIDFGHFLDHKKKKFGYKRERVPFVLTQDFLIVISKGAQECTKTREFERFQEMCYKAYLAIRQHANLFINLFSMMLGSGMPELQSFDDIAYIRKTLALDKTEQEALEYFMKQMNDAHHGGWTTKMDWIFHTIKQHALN
T1 sequence (P27986 whole entry partner): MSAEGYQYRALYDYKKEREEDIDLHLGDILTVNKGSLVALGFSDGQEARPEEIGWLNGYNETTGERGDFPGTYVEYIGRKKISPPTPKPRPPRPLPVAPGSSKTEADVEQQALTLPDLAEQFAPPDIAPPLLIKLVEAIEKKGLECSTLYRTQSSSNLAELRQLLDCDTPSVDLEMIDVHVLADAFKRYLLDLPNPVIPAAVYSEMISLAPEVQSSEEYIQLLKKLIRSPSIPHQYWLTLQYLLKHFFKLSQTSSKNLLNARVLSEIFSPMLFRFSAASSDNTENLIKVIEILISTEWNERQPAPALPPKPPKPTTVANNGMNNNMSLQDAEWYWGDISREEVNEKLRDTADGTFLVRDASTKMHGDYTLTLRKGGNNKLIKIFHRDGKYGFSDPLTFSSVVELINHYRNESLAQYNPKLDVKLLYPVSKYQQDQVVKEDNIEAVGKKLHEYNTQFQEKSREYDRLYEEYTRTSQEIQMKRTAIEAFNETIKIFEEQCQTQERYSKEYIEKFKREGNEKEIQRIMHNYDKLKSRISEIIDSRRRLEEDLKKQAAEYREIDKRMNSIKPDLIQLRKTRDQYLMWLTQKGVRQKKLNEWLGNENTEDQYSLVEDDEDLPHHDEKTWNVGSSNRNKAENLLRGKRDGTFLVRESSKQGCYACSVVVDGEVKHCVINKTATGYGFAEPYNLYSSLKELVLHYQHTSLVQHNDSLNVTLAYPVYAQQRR

In the case of `CC(=O)Nc1ccc(-c2nc3c(c(=O)n(C)c(=O)n3C)n2-c2cccc(F)c2)cc1` [HS-133, N-(4-(7-(3-Fluorophenyl)-1,3-dimethyl-2,6-dioxo-2,3,6,7-tetrahydro-1H-purin-8-yl)phenyl) acetamide], the cell cycle distribution result with SkBr3 cells is listed as “increased the number of cells in the G0/G1 phase”. For the same molecule, the 50% inhibitory concentration (IC50) in the series on MCF-7 cells was determined as 9.15 µM; at PI3Kα (radiometric kinase assay, read-out: IC50 against PI3Kα), 992 nM; in the series on T47D cells, 9.4 µM. The concentration giving a half-maximal response (EC50) on PI3Kα (Fig. 2A, read-out: EC50 (printed in Fig. 2A), inhibitory activity against PI3Kα in vitro) was 992 nM. For the same molecule, the “tumor volume and weight” value with SkBr3 xenograft (intratumoral 5 mg/kg, 2 times per week, 19 days) is recorded as “remarkably reduced”. Moreover, the “reduction of average tumor volume compared to control mice” value with SkBr3 xenograft (oral 10 mg/kg daily for 21 days) is “about 50%”. Besides, in the series on SkBr3 xenograft (same dose, SkBr3 xenograft mice), the “body weight change in tumor-bearing mice” value is on record as “no significant change”.
